# Source: BindingDB's records for doi:10.1021/np200036v (National Engineering Research Center For The Emergency …, 2020)
# Key:
# [1] = molecular target: Receptor-type tyrosine-protein phosphatase beta (Homo sapiens, UniProt P23467); test: Inhibition of recombinant human PTPbeta using DiFMUP as substrate preincubated for 10 mins followed by substrate addition and measured after 2 hrs
# [2] = molecular target: T1, Tyrosine-protein phosphatase non-receptor type 1 (Homo sapiens, UniProt P18031); test: Inhibition of recombinant PTP1B (unknown origin)
# T1 sequence (P18031 whole entry): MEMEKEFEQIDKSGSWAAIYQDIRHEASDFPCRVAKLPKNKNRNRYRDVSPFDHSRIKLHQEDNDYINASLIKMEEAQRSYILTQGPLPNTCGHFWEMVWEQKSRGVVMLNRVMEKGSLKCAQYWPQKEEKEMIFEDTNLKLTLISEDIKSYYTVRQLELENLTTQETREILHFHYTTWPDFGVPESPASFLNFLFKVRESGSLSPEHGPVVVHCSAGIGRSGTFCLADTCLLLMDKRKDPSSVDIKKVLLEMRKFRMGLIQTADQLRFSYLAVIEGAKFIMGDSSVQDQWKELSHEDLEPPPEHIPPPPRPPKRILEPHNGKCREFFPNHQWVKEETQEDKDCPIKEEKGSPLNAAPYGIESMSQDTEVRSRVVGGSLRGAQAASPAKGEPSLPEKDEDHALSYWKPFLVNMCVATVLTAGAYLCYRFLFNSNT
# [3] = molecular target: T2, Tyrosine-protein phosphatase non-receptor type 11 (Homo sapiens, UniProt Q06124); test: Inhibition of recombinant SHP2 (unknown origin)
# T2 sequence (Q06124 whole entry): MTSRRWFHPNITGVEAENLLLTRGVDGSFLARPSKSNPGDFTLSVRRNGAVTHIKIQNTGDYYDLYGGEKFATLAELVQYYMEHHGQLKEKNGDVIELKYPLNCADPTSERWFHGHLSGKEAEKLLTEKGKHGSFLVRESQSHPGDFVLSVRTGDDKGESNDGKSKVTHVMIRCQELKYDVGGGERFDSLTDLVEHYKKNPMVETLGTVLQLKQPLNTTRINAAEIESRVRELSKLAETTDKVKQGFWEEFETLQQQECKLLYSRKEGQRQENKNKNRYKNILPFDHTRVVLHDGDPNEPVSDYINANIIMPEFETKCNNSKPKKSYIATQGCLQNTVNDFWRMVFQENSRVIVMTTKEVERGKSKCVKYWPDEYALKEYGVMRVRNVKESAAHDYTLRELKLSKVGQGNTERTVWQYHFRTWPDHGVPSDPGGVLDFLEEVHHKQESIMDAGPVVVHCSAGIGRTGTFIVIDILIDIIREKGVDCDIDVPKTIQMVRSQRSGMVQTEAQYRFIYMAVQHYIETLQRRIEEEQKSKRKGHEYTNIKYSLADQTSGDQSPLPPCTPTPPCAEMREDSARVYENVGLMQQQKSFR
# [4] = molecular target: T3, Tyrosine-protein phosphatase non-receptor type 2 (Homo sapiens, UniProt P17706); test: Inhibition of recombinant TC-PTP (unknown origin)
# T3 sequence (P17706 whole entry): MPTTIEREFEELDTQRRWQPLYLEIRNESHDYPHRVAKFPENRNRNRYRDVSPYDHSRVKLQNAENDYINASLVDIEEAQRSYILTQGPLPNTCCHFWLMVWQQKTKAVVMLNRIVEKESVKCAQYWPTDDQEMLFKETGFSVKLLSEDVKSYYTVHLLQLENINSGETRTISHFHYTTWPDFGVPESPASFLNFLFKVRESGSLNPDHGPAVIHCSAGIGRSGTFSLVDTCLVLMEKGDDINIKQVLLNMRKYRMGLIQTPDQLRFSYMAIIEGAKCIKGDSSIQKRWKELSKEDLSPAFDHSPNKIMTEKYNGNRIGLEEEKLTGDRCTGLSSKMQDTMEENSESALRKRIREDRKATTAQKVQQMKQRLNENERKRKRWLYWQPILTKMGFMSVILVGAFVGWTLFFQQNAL
# [5] = molecular target: Receptor-type tyrosine-protein phosphatase F (Homo sapiens, UniProt P10586); test: Inhibition of recombinant LAR (unknown origin)
# Chain of Receptor-type tyrosine-protein phosphatase F (P10586 whole entry): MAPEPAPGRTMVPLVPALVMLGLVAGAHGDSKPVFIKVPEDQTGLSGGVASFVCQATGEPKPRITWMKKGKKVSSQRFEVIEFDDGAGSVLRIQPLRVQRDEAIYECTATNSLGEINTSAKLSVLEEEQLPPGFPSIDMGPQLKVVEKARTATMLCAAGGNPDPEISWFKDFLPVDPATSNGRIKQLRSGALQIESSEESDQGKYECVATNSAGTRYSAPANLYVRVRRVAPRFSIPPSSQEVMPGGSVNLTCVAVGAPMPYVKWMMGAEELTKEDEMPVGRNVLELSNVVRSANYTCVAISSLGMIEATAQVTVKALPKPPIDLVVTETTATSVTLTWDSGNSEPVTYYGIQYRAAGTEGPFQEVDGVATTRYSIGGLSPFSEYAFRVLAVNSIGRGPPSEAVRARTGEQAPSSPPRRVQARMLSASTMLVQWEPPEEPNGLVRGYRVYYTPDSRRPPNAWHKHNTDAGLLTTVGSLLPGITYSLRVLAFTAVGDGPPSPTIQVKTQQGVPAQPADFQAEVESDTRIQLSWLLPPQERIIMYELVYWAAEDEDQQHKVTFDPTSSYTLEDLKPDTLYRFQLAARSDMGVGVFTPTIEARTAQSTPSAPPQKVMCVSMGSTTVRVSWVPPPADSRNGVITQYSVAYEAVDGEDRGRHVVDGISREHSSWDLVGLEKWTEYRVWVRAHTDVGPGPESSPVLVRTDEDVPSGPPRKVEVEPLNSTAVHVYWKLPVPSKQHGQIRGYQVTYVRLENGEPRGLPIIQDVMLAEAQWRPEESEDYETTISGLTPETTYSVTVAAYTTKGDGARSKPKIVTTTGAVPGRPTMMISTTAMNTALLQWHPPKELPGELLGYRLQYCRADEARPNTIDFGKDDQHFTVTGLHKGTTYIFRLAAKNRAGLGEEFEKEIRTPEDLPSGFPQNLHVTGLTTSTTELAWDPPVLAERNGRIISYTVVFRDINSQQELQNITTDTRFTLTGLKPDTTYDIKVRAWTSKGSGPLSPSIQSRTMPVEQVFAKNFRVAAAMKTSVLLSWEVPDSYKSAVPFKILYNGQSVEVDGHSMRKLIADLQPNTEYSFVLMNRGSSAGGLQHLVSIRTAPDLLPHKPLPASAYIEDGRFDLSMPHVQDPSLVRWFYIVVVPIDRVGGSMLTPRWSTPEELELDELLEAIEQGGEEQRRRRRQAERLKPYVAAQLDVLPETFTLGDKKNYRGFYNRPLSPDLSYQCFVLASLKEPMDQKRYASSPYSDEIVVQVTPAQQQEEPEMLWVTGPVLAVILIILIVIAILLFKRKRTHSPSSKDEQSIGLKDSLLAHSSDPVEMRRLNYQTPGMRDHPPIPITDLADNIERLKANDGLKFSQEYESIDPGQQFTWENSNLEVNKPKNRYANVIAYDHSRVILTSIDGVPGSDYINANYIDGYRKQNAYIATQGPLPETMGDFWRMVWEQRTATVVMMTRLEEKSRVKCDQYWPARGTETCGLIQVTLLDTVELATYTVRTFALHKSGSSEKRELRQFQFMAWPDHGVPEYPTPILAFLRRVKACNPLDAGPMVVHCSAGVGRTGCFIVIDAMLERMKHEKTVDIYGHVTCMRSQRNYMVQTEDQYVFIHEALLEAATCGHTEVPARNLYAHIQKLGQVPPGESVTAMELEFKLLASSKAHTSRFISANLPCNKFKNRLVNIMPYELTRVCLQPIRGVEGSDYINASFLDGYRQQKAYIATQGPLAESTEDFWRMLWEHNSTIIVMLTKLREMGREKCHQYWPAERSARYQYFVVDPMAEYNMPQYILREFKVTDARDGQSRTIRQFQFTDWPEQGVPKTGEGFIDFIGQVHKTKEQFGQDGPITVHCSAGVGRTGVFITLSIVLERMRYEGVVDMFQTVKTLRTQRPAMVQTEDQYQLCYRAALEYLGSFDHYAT
# Chain of Receptor-type tyrosine-protein phosphatase beta (P23467 whole entry): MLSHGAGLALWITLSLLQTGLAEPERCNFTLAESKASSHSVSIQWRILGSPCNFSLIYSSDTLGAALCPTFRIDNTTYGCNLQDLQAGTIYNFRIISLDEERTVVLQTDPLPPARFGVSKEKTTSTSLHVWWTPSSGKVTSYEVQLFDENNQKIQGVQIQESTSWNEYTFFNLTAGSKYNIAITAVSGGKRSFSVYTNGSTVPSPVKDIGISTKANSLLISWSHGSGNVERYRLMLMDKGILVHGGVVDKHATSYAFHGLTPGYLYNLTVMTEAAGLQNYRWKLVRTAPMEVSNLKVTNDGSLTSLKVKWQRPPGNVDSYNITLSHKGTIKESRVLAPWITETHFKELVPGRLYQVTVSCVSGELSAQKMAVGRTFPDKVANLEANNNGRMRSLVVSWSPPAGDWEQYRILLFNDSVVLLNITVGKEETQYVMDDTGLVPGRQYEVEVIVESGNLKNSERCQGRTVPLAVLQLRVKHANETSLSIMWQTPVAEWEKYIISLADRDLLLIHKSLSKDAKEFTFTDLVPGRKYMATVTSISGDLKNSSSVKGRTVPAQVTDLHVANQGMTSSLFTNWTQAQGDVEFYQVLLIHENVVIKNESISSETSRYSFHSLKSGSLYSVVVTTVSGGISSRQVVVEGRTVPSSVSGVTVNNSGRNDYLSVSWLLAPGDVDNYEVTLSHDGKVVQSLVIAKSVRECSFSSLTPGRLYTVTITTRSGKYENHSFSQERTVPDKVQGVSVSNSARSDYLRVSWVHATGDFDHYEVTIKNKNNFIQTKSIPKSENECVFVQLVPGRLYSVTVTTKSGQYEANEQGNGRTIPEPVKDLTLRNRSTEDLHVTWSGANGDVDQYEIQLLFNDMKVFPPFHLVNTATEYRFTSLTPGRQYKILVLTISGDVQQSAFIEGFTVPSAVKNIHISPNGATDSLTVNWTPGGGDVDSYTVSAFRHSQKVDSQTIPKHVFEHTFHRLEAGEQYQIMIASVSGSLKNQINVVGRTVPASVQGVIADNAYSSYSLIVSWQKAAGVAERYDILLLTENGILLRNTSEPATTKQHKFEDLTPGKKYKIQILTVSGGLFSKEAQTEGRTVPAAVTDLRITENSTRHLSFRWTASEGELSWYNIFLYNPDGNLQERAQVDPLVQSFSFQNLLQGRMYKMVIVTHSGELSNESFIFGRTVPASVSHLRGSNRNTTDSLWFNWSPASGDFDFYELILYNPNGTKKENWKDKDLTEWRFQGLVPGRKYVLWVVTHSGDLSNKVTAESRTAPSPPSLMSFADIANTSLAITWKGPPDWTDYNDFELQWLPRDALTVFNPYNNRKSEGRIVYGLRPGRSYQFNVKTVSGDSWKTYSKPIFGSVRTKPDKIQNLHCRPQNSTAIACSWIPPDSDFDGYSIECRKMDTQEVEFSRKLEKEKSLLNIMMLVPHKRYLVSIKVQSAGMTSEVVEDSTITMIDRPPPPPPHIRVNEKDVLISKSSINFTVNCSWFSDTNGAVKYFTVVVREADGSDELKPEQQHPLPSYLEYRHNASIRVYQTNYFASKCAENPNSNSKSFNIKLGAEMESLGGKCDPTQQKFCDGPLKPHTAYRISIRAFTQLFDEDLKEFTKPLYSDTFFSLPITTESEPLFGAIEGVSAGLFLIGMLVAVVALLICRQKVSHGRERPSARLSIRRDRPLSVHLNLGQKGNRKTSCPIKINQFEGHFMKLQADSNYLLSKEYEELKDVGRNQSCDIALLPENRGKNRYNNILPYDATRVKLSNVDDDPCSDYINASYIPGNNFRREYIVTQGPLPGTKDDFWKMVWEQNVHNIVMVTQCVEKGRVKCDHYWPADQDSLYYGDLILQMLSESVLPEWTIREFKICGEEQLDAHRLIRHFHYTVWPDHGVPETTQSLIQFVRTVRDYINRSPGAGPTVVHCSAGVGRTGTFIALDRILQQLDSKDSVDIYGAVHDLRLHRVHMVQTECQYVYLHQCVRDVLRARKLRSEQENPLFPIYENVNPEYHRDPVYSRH
SMILES,IC50 [1] [µM],IC50 [2] [µM],IC50 [3] [µM],IC50 [4] [µM],IC50 [5] [µM]
COC(=O)N[C@@H](Cc1ccccc1)C(=O)N(Cc1ccc(NS(=O)(=O)O)cc1)c1ccccc1,3.42,,,,
CC(C)(C)OC(=O)N1CCC(C(=O)N(Cc2ccc(NS(=O)(=O)O)cc2)c2nc(-c3ccccc3)cs2)CC1,6.4,,,,
COC(=O)N[C@@H](Cc1ccccc1)C(=O)N(Cc1ccc(NS(=O)(=O)O)cc1)c1nc(-c2ccccc2)cs1,3.46,,,,
O=C(Cc1cccc(F)c1)N(Cc1ccc(NS(=O)(=O)O)cc1)c1nc(-c2ccccc2)cs1,4.1,,,,
COC(=O)N[C@@H](Cc1ccccc1)C(=O)N(Cc1ccc(NS(=O)(=O)O)cc1)c1nc(-c2cccs2)cs1,6.61,,,,
O=C(c1cccnc1Cl)N(Cc1ccc(NS(=O)(=O)O)cc1)c1nc(-c2ccccc2)cs1,2.98,22.2,19.6,32.8,42.3
O=C(c1ccccc1Cl)N(Cc1ccc(NS(=O)(=O)O)cc1)c1nc(-c2ccccc2)cs1,4.67,,,,
COc1ccc(S(=O)(=O)N(Cc2ccc(NS(=O)(=O)O)cc2)c2nc(-c3ccccc3)cs2)cc1,2.07,,,,
O=C(c1ccccc1Cl)N(Cc1ccc(NS(=O)(=O)O)cc1)c1nc(-c2cccs2)cs1,5.94,,,,
COc1ccc(S(=O)(=O)N(Cc2ccc(NS(=O)(=O)O)cc2)c2nc(-c3cccs3)cs2)cc1,1.81,,,,
O=[N+]([O-])c1ccc(CNc2ccccc2)cc1,,15.7,55.3,20.1,76.4

# Further molecules by falling IC50 [1], results first:
IC50 [1] [µM],IC50 [2] [µM],IC50 [3] [µM],IC50 [4] [µM],IC50 [5] [µM],SMILES
1.78,,,,,O=C(Cc1ccc(Br)c(F)c1)N(Cc1ccc(NS(=O)(=O)O)cc1)c1ccccc1
1.75,,,,,O=S(=O)(O)Nc1ccc(CN(c2nc(-c3cccs3)cs2)S(=O)(=O)c2cccc(Cl)c2)cc1
1.72,,,,,O=C(Cc1cccc(F)c1)N(Cc1ccc(NS(=O)(=O)O)cc1)c1ccccc1
1.68,,,,,O=C(COc1ccc(Cl)cc1Cl)N(Cc1ccc(NS(=O)(=O)O)cc1)c1ccccc1
1.45,123,24.7,102,112,CC(C)(C)OC(=O)N1CCC(C(=O)N(Cc2ccc(NS(=O)(=O)O)cc2)c2ccccc2)CC1
1.41,,,,,COc1cccc(S(=O)(=O)N(Cc2ccc(NS(=O)(=O)O)cc2)c2nc(-c3cccs3)cs2)c1
1.32,,,,,O=S(=O)(O)Nc1ccc(CN(c2nc(-c3ccccc3)cs2)S(=O)(=O)c2cccc(Cl)c2)cc1
1.24,,,,,O=S(=O)(O)Nc1ccc(CN(c2nc(-c3ccccc3)cs2)S(=O)(=O)c2cccc(F)c2)cc1
1.07,,,,,O=S(=O)(O)Nc1ccc(CN(c2nc(-c3cccs3)cs2)S(=O)(=O)c2cccc(F)c2)cc1
0.995,> 250,25.6,> 250,130,O=S(=O)(O)Nc1ccc(CNc2nc(-c3cccs3)cs2)cc1
0.968,20.5,6.41,31.3,34.8,COc1cccc(S(=O)(=O)N(Cc2ccc(NS(=O)(=O)O)cc2)c2nc(-c3ccccc3)cs2)c1
